# Experimental data: patent publication US20060030616A1, “Anhydride modified cantharidin analogues useful in the treatment of cancer” (priority 1998, published 2006)
# How the values were obtained:
# L1210 cells = test: MTT cytotoxicity assay, 72 h; format: cell-based, murine; settings: Mus musculus, 72 h; L1210, p53 wt; read-out: IC50 (mean ± SE) after 72 h continuous exposure
# Protocol: (§1) Cells in a subconfluent phase are transferred to 96-well microtitre plates. L1210 cells are plated at a density of 1000 cells/well in 100 μl medium, while all other cell lines are plated at a density of 2000-25000 cells/well. The cells are left for 24 h prior to treatment to ensure exponential growth has been achieved, 24 h after plating (day 0), 100 μl of phosphatase inhibitor is added to each well, control wells received 100 μl of medium only. Drug exposure time is 72 h (day 3). The effect of phosphatase inhibition is tested in triplicate over a concentration range of […]−1×10^−8 M. Growth inhibitory effects are evaluated using the MTT assay and absorbance read at […]. The IC50 is the drug concentration at which cell growth is 50% inhibited based on the difference of optical density on day 0 and day 3 of drug exposure. Cytotoxicity is evaluated using a spectrophotometric assay which determines the percentage of cell growth following exposure of the cells to various concentrations of the phosphatase inhibitors for a period of 72 hours. The subsequent dose response curve is used to calculate IC50 values (the drug concentration at which cell growth is 50% inhibited).
# (§2) Anti-cancer screening of the protein phosphatase inhibitors is assessed using the MTT assay. This assay determines cell viability by the ability of mitochondrial dehydrogenase to produce formazan crystals from 3-(4,5-dimethylthiazol-2-yl)-2,5-diphenyltetrazolium bromide. The viable cell number/well is directly proportional to the production of formazan, which following solubilization, can be measured spectrophotometrically (540 nm). This technique is also used by the National Cancer Institute to screen for new anticancer agents.
# (§3) As described herein a number of cantharidin analogues have been synthesised and tested for their anticancer activity in nine cancer cell lines using the MTT assay after 72 h exposure. These new analogues are shown in FIG. 2 and have been designated MK-1 through to MK-9.
# ADDP cells = test: MTT cytotoxicity assay, 72 h; format: cell-based, human; settings: Homo sapiens, 72 h, p53 mt, read-out: IC50 (mean ± SE) after 72 h continuous exposure
# Procedure, shortened: (§4)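 Growth inhibition is determined spectrophotometrically by MTT (540 nm) following a 72 h exposure to the inhibitors, run in triplicate. IC50 marks 50% inhibition of growth, based on the optical density difference between day 0 and day 3.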
# SW480 cells = test: MTT cytotoxicity assay, 72 h; format: cell-based, human; settings: Homo sapiens, 72 h; SW480, p53 mt; read-out: IC50 (mean ± SE) after 72 h continuous exposure
# Procedure, shortened: as §4
# 143B cells = test: MTT cytotoxicity assay, 72 h; format: cell-based, human; settings: Homo sapiens, 72 h, p53 mt, read-out: IC50 (mean ± SE) after 72 h continuous exposure
# Procedure, shortened: as §4
# HCT116 cells [1] = test: MTT cytotoxicity assay, 72 h; format: cell-based, human; settings: Homo sapiens, HCT-116, 72 h; HCT116, p53 wt; read-out: IC50 (mean ± SE) after 72 h continuous exposure
# Procedure, shortened: as §4
# WiDr cells = test: MTT cytotoxicity assay, 72 h; format: cell-based, human; settings: Homo sapiens, 72 h, p53 mt, read-out: IC50 (mean ± SE) after 72 h continuous exposure
# Procedure, shortened: as §4
# HL60 cells = test: Cell cycle analysis, flow cytometry of propidium iodide stained cells; format: cell-based, human; settings: for Cell Cycle Distribution, G1 / Cell Cycle Distribution, G2 + M / Cell Cycle Distribution, S / Cell Cycle Distribution, sub G1 / Cell cycle remark: 12 h
# Protocol: (§5) The cells are fixed in 70% ethanol and stored at −20° C. until analysis is performed (1-2 weeks). After fixing, the cells are pelleted and incubated in PBS containing propidium iodide ([…]) and RNase A (200 mg/ml) for at least 30 min at room temperature. The samples (2×10^4 events) are analysed using a Becton Dickson FACScan, fluorescence is collected in fluorescence detector 2 (FL2), filter 575/30 nm band pass. Cell cycle distribution is assessed using Cell Quest software (Becton Dickson).
# (§6) The ability of the protein phosphatase inhibitors to abrogate the G1 or G2 checkpoint of the cell cycle may be determined by cell cycle analysis using flow cytometry. Briefly, asynchronous cell cultures are harvested 18 h after 6 Gy irradiation and/or 12 h incubation with the protein phosphatase inhibitor. Depending upon the p53 status of the cell line, radiation treatment alone will induce arrest in either G1 and/or G2 phase of the cell cycle.
# (§7) Data shown in Table 2 and FIG. 4 show the cell cycle response of L1210, HL60, HT29 and HCT116 cells to cantharidin and the new cantharidin analogues MK-2 and MK-4 after 12 h exposure. In summary, cantharidin and MK-2 produced a similar response and induced G2 arrest in all four cell lines tested. […] HL60 and HCT116 cells. […] The magnitude of the cell cycle arrest induced by these drugs directly correlated with their cytotoxicity in the respective cell lines. […] The cytotoxicity of the […]
# HCT116 cells [2] = test: as above; format: cell-based, human
# Protocol: as §5, §6, §7
# HT29 cells = test: as above; format: cell-based, human; settings: for Cell Cycle Distribution, G1 / Cell Cycle Distribution, G2 + M / Cell Cycle Distribution, S / Cell Cycle Distribution, sub G1 / Cell cycle remark: 12 h
# Protocol: as §5, §6, §7
# nine cancer cell lines = test: MTT cytotoxicity assay, 72 h, ranges over cell line panel; format: cell-based; settings: nine cell lines, read-out: IC50 range across all cell lines tested
# Protocol: as §1, §2, §3
smiles,measurement,setting,value
"C[C@@]12C(=O)OC(=O)[C@]1(C)[C@H]1CC[C@@H]2O1 [Cantharidin, exo.exo-2.3-dimethyl-7-oxobicyclo[2.2.1]heptane-2,3-dicarboxylic acid anhydride]",IC50,L1210 cells,18 µM
same,IC50,ADDP cells,12 ± 0.8 µM
same,IC50,SW480 cells,17.5 µM
same,IC50,143B cells,10.2 ± 1.2 µM
same,IC50,HCT116 cells [1],12 µM
same,IC50,WiDr cells,6.1 ± 0.5 µM
same,"Cell Cycle Distribution, G1","HL60 cells; HL60, 1 μM",44.0 percentage of total
same,"Cell Cycle Distribution, G2 + M","HL60 cells; HL60, 1 μM",29.7 percentage of total
same,"Cell Cycle Distribution, S","HL60 cells; HL60, 1 μM",26.1 percentage of total
same,"Cell Cycle Distribution, sub G1","HL60 cells; HL60, 1 μM",1.5 percentage of total
same,"Cell Cycle Distribution, G1","HL60 cells; HL60, 5 μM",41.4 percentage of total
same,"Cell Cycle Distribution, G2 + M","HL60 cells; HL60, 5 μM",30.6 percentage of total
same,"Cell Cycle Distribution, S","HL60 cells; HL60, 5 μM",27.7 percentage of total
same,"Cell Cycle Distribution, sub G1","HL60 cells; HL60, 5 μM",1.7 percentage of total
same,"Cell Cycle Distribution, G1","HL60 cells; HL60, 10 μM",41.8 percentage of total
same,"Cell Cycle Distribution, G2 + M","HL60 cells; HL60, 10 μM",30.4 percentage of total
same,"Cell Cycle Distribution, S","HL60 cells; HL60, 10 μM",27.5 percentage of total
same,"Cell Cycle Distribution, sub G1","HL60 cells; HL60, 10 μM",1.7 percentage of total
same,Cell cycle remark,"HL60 cells; HL60, 10 μM",G2 arrest
same,"Cell Cycle Distribution, G1","HL60 cells; HL60, 50 μM",16.2 percentage of total
same,"Cell Cycle Distribution, G2 + M","HL60 cells; HL60, 50 μM",34.7 percentage of total
same,"Cell Cycle Distribution, S","HL60 cells; HL60, 50 μM",31.6 percentage of total
same,"Cell Cycle Distribution, sub G1","HL60 cells; HL60, 50 μM",19.3 percentage of total
same,Cell cycle remark,"HL60 cells; HL60, 50 μM",Cell Death
same,Cell cycle response,"HL60 cells; HL60, 12 h exposure",G2 arrest
same,"Cell Cycle Distribution, G1","HCT116 cells [2]; HCT116, 1 μM, 12 h",39.9 percentage of total
same,"Cell Cycle Distribution, G2 + M","HCT116 cells [2]; HCT116, 1 μM, 12 h",41.9 percentage of total
same,"Cell Cycle Distribution, S","HCT116 cells [2]; HCT116, 1 μM, 12 h",17.2 percentage of total
same,"Cell Cycle Distribution, sub G1","HCT116 cells [2]; HCT116, 1 μM, 12 h",2.2 percentage of total
same,"Cell Cycle Distribution, G1","HCT116 cells [2]; HCT116, 5 μM, 12 h",39.9 percentage of total
same,"Cell Cycle Distribution, G2 + M","HCT116 cells [2]; HCT116, 5 μM, 12 h",41.8 percentage of total
same,"Cell Cycle Distribution, S","HCT116 cells [2]; HCT116, 5 μM, 12 h",16.8 percentage of total
same,"Cell Cycle Distribution, sub G1","HCT116 cells [2]; HCT116, 5 μM, 12 h",2.9 percentage of total
same,"Cell Cycle Distribution, G1","HCT116 cells [2]; HCT116, 10 μM, 12 h",38.0 percentage of total
same,"Cell Cycle Distribution, G2 + M","HCT116 cells [2]; HCT116, 10 μM, 12 h",42.0 percentage of total
same,"Cell Cycle Distribution, S","HCT116 cells [2]; HCT116, 10 μM, 12 h",14.9 percentage of total
same,"Cell Cycle Distribution, sub G1","HCT116 cells [2]; HCT116, 10 μM, 12 h",6.2 percentage of total
same,"Cell Cycle Distribution, G1","HCT116 cells [2]; HCT116, 50 μM, 12 h",25.1 percentage of total
same,"Cell Cycle Distribution, G2 + M","HCT116 cells [2]; HCT116, 50 μM, 12 h",48.1 percentage of total
same,"Cell Cycle Distribution, S","HCT116 cells [2]; HCT116, 50 μM, 12 h",17.8 percentage of total
same,"Cell Cycle Distribution, sub G1","HCT116 cells [2]; HCT116, 50 μM, 12 h",11.1 percentage of total
same,Cell cycle remark,"HCT116 cells [2]; HCT116, 50 μM, 12 h",G2 arrest
same,Cell cycle response,"HCT116 cells [2]; HCT116, 12 h exposure",G2 arrest
same,"Cell Cycle Distribution, G1","HT29 cells; HT29, 1 μM",46.2 percentage of total
same,"Cell Cycle Distribution, G2 + M","HT29 cells; HT29, 1 μM",37.4 percentage of total
same,"Cell Cycle Distribution, S","HT29 cells; HT29, 1 μM",7.8 percentage of total
same,"Cell Cycle Distribution, sub G1","HT29 cells; HT29, 1 μM",9.0 percentage of total
same,"Cell Cycle Distribution, G1","HT29 cells; HT29, 5 μM",47.4 percentage of total
same,"Cell Cycle Distribution, G2 + M","HT29 cells; HT29, 5 μM",39.8 percentage of total
same,"Cell Cycle Distribution, S","HT29 cells; HT29, 5 μM",9.3 percentage of total
same,"Cell Cycle Distribution, sub G1","HT29 cells; HT29, 5 μM",4.0 percentage of total
same,"Cell Cycle Distribution, G1","HT29 cells; HT29, 10 μM",42.7 percentage of total
same,"Cell Cycle Distribution, G2 + M","HT29 cells; HT29, 10 μM",40.3 percentage of total
same,"Cell Cycle Distribution, S","HT29 cells; HT29, 10 μM",14.6 percentage of total
same,"Cell Cycle Distribution, sub G1","HT29 cells; HT29, 10 μM",2.8 percentage of total
same,Cell cycle remark,"HT29 cells; HT29, 10 μM",G2 arrest
same,"Cell Cycle Distribution, G1","HT29 cells; HT29, 50 μM",46.0 percentage of total
same,"Cell Cycle Distribution, G2 + M","HT29 cells; HT29, 50 μM",26.0 percentage of total
same,"Cell Cycle Distribution, S","HT29 cells; HT29, 50 μM",14.7 percentage of total
same,"Cell Cycle Distribution, sub G1","HT29 cells; HT29, 50 μM",15.1 percentage of total
same,Cell cycle remark,"HT29 cells; HT29, 50 μM",Cell Death
same,Cell cycle response,"HT29 cells; HT29, 12 h exposure",G2 arrest
same,IC50,nine cancer cell lines,6.1 to 18 µM
